{"source": "patent US20230117680A1", "about": "“CYCLOPHILIN D INHIBITORS AND USES THEREOF” (The Broad Institute, Inc., priority 2019, published 2023)", "key": {"PPWD1": {"target": "T1, PPWD1 (Homo sapiens, UniProt Q96BP3)", "T1 sequence (Q96BP3 1-646)": "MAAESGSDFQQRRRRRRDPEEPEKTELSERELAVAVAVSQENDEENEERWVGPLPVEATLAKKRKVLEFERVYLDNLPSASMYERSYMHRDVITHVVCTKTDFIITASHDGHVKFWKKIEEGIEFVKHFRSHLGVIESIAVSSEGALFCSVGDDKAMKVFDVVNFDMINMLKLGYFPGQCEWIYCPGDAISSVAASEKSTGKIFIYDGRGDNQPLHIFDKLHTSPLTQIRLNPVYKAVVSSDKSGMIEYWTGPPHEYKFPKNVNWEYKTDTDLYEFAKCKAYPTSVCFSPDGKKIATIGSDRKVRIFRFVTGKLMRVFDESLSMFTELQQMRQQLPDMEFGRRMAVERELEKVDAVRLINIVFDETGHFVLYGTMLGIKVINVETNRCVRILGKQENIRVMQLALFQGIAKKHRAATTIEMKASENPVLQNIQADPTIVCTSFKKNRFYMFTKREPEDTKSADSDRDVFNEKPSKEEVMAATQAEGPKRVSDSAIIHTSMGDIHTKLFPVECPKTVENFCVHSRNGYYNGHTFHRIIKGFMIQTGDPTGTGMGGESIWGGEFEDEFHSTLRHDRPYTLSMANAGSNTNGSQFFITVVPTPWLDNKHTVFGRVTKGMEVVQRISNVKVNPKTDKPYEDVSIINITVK", "test": "chymotrypsin coupled PPIase assay, PPWD1 inhibition", "type": "biochemical", "conditions": "result in words", "method": "Following the synthesis of the indicated library members, in vitro inhibition (IC50) assays of these hits were conducted to obtain IC50 inhibitory data. For the IC50 assays, a chymotrypsin coupled PPIase assay using Suc-AAPF-AMC as the peptide substrate was used, whereby isomerization of a peptide substrate Suc-AAPF-AMC from the cis to trans conformation allowed for proteolysis via excess a-chymotrypsin, releasing the C-terminal coumarin fluorophore. […] Other non-inhibitor library members were also checked for binding via SPR, but produced the same profile as the prolyl isomerase assay.\nSubsequently, to determine if the compounds could both access the S2 pocket and display CypD specificity, JOMBtrans and compound 49 were screened against the 10 other cyclophilins with reported prolyl isomerase activity. […] Co-crystal structures of JOMBtrans and 49 were solved with CypD. […] Three further H-bonds with the macrocycle's backbone and CypD were observed along with a cation-n interaction. […] The benzyl group on the piperidine ring altered the conformation of the macrocycle to open up two new hydrogen bonding interactions with CypD. […] This improvement in specificity compared to JOMBtrans signified that more CypD specific compounds can be garnered by derivatization into the S2 pocket."}, "[1]": {"system": "10 other cyclophilins with reported prolyl isomerase activity", "test": "cyclophilin specificity screen: CypD against the other cyclophilins", "type": "biochemical", "conditions": "result in words", "text": "The selectivity of a compound described herein in inhibiting the activity of a first cyclophilin (e.g., CypD) over a second cyclophilin may be measured by the quotient of the IC50 value of the compound in inhibiting the activity of the second cyclophilin over the IC50 value of the compound in inhibiting the activity of the first cyclophilin. The selectivity of a compound described herein in modulating the activity of a first cyclophilin over a second cyclophilin may also be measured by the quotient of the Kd value of an adduct of the compound and the second cyclophilin over the Kd value of an adduct of the compound and the first cyclophilin (e.g., CypD). […] In certain embodiments, selectivity for inhibiting a first cyclophilin over other cyclophilins is measured by Surface Plasmon Resonance (SPR) assays as disclosed in the Examples.\nFollowing the synthesis of the indicated library members, in vitro inhibition (IC50) assays of these hits were conducted to obtain IC50 inhibitory data. For the IC50 assays, a chymotrypsin coupled PPIase assay using Suc-AAPF-AMC as the peptide substrate was used, whereby isomerization of a peptide substrate Suc-AAPF-AMC from the cis to trans conformation allowed for proteolysis via excess a-chymotrypsin, releasing the C-terminal coumarin fluorophore.\nSubsequently, to determine if the compounds could both access the S2 pocket and display CypD specificity, JOMBtrans and compound 49 were screened against the 10 other cyclophilins with reported prolyl isomerase activity. […] Co-crystal structures of JOMBtrans and 49 were solved with CypD."}}}
{"molecule": "NCCOCCNC(=O)[C@@H]1CCNC(=O)/C=C/C(=O)N2CCC[C@H](C2)C(=O)N[C@@H](Cc2ccc(C(=O)c3ccccc3)cc2)C(=O)NCc2ccccc2CC(=O)N1", "note": "[compound 27]", "values": [{"measurement": "inhibition of PPWD1", "setting": "PPWD1", "value": "Almost complete ablation of inhibition profiles"}, {"measurement": "specificity / selectivity profile for CypD (in words)", "setting": "[1]", "value": "improvement in specificity for CypD"}]}
